In patent US20240425529A1, “BORIC ACID DERIVATIVE” (SHOUYAO HOLDINGS (BEIJING) CO., LTD., priority 2021, published 2024):
pIC50: −log10 of the molar value.

Assays:
β5 = target: T1, β5 (Homo sapiens, UniProt P28074); test: Enzymatic inhibitory activity on β5 (HEK-293 cell lysate, Ac-WLA-AMC substrate); assay type: biochemical; conditions: 1 hour pre-incubation
T1 construct: using HEK-293 cell lysate as the enzyme source of D5; endogenous in cells; host or cells: HEK-293 (human embryonic kidney cells)
Outline: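 HEK-293 lysate (25 ng/μl final) preincubated 1 h at 23 °C with compound (9-point, 5-fold dilutions) in 20 mM Tris pH 8.0, 0.5 mM EDTA. Ac-WLA-AMC then added at 20 μM final for 2 h at 23 °C in the dark. AMC fluorescence read at Ex 345/Em 445 nm; IC50 from curve fit.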

LMP7 = target: T2, LMP7 (Homo sapiens, UniProt P28062); test: Enzymatic inhibitory activity on LMP7 (MOLT-4 cell lysate, Ac-ANW-AMC substrate); assay type: biochemical; conditions: 1 hour pre-incubation
T2 construct: using MOLT-4 cell lysate as the enzyme source of LMP7; endogenous in cells; host or cells: MOLT-4 (human acute lymphoblastic leukemia cells)
Outline: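 Enzyme source was MOLT-4 cell lysate (20 ng/μl final) in 20 mM Tris pH 8.0, 0.5 mM EDTA, preincubated 1 h at 23 °C with compound at 9 final concentrations (0–2000 nM). Ac-ANW-AMC ([…]) was then added, 2 h at 23 °C in the dark. AMC fluorescence (ex 345/em 445 nm) gave the IC50.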

| pIC50 (β5) | pIC50 (LMP7) | Structure (SMILES) |
| --- | --- | --- |
| 6.55 | 8.02 | O=C(Nc1ccccn1)C(=O)N[C@@H](Cc1coc2ccccc12)B(O)O [Ex. 12] |
| 7.21 | 8.82 | O=C(Nc1cc(Cl)ccn1)C(=O)N[C@@H](Cc1coc2ccccc12)B(O)O [Ex. 49, (R)-(2-(benzofuran-3-yl)-1-(2-oxo-2-((4-chloropyridin-2-yl)amino)acetamido)ethyl)boronic acid] |

Second part, the compound before the results:

| Structure (SMILES) | pIC50 (β5) | pIC50 (LMP7) |
| --- | --- | --- |
| O=C(Nc1cnccn1)C(=O)N[C@@H](Cc1coc2ccccc12)B(O)O [Ex. 9, (R)-(2-(benzofuran-3-yl)-1-(2-oxo-2-(pyrazin-2-ylamino)acetamido)ethyl) boronic acid] | 7.01 | 8.04 |
| O=C(Nc1nc2ccccc2s1)C(=O)N[C@@H](Cc1coc2ccccc12)B(O)O [Ex. 27, (R)-(2-(benzofuran-3-yl)-1-(2-oxo-2-((benzo[d]thiazol-2-yl)amino)acetamido)ethyl)boronic acid] | 7.35 | 8.45 |
| Cc1cnc(NC(=O)C(=O)N[C@@H](Cc2coc3ccccc23)B(O)O)s1 [Ex. 32, (R)-(2-(benzofuran-3-yl)-1-(2-oxo-2-((5-methylthiazol-2-yl)amino)acetamido)ethyl)boronic acid] | 7.20 | 8.34 |
| CC1CC(C)(C)OB([C@H](Cc2coc3ccccc23)NC(=O)C(=O)Nc2cnccn2)O1 (some centres unmarked) [Ex. 67] | 7.42 | 8.80 |
| O=C1COB([C@H](Cc2coc3ccccc23)NC(=O)C(=O)Nc2cnccn2)O1 [Ex. 73] | 7.68 | 8.91 |
